Consider 17 molecules from patent US20230099344A1, “COMPOUNDS AND METHODS FOR THE TARGETED DEGRADATION OF IRAK-4” (Arvinas Operations, Inc., priority 2021, published 2023).

Common to all, as to assay type: cell-based
Test [1] relates to IL6. The test can be described thus: LPS stimulated IL6 inhibition assay in PBMC. The following applies: Homo sapiens, PBMC, 24 h, human PBMCs, LPS stimulation, compound overnight, IL6 by MSD after 24 hrs; for Dmax: read-out: LPS Stim IL6 inhibition Dmax; for IC50: read-out: LPS stim IL6 inhibition IC50. As for the experimental part: (§1) IL-1β, LPS, or R848 Stimulated IL6 Inhibition and IL-1β Stimulated IL8 Inhibition Assay
(§2) Human PBMC cells were seeded at 2.0×10^6 cells/mL, treated with compound overnight, and dosed with the EC50 concentration of each stimulant (either IL-1B. LPS, or R848) was determined for each donor. After 24 hrs, media was collected and analyzed by MSD for IL6 and/or IL8 levels.

In test [2] the test system is IL6. The test can be described thus: R848 stimulated IL6 inhibition assay in PBMC. As to conditions: PBMC, human PBMCs, R848 stimulation, compound overnight, IL6 by MSD after 24 hrs; for Dmax: Homo sapiens, 24 h, read-out: R848 stim IL6 inhibition Dmax; for IC50: read-out: R848 stim IL6 inhibition IC50. As to the method: as §1, §2
The target of a further test is T1, IRAK-4 (Homo sapiens, UniProt Q9NWZ3).
T1 sequence (Q9NWZ3 1-460): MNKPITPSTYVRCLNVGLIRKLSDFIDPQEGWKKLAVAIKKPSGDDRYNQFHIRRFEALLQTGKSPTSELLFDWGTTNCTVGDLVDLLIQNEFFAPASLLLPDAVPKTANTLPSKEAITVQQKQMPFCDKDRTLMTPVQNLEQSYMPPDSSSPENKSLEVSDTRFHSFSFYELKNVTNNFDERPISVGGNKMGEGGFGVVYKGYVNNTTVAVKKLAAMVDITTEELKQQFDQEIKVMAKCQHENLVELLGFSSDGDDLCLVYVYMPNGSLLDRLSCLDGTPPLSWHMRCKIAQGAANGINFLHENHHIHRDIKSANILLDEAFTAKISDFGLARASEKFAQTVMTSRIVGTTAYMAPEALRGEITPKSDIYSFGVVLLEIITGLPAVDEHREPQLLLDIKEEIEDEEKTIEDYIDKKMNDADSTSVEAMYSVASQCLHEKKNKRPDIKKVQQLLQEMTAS
The test can be described thus: IRAK-4 ELISA, PBMC degradation. On the set-up: endogenous in cells; host or cells: PBMC. The following applies: treated overnight. In outline: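 OCI-Ly10 cells (1×10^6/ml) or PBMC (2×10^6/ml) treated with compound on the day of seeding and incubated overnight. IRAK-4 protein remaining in cell lysates quantified by sandwich ELISA.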

Turning to `CN1CC(Oc2cc3c(cc2NC(=O)c2cnn4cccnc24)CN(C2CCN(CC4CN(c5ccc6c(c5)C(=O)N(C5CCC(=O)NC5=O)C6=O)C4)CC2)C3=O)C1` (stereo not shown) [Example 44], in the test with IL6 [1], the Dmax fell in the range of 70 to 80% and the IC50 lay in the range of 0.05 to 0.1 µM. In the test on IL6 [2], the Dmax was not below 90% and the IC50 lay within 0.01 to 0.05 µM. Further, on IRAK-4, the DC50 is not below 0.01 µM, the Dmax fell in the range of 80 to 90% and the “PBMC DC90” value was “D (D represents a DC90 value ≥50 nM)”.
For the molecule `O=C1CCC(N2Cc3ccc(N4CCC(CN5CCC(N6Cc7cc(NC(=O)c8cnn9cccnc89)c(OCC(F)F)cc7C6=O)CC5)CC4)cc3C2=O)C(=O)N1` (stereo not shown) [Example 45], in the test with IL6 [1], the Dmax was in the range of 70 to 80% and the IC50 was 0.01 to 0.05 µM. In the test on IL6 [2], the Dmax was not below 90% and the IC50 is less than 0.01 µM. Also, on IRAK-4, the DC50 was in the range of 0.001 to 0.005 µM, the Dmax is not below 90% and the “PBMC DC90” value is listed as “A (A represents a DC90 value <10.0 nM)”.
For the molecule `CC(C)Oc1nc2c(cc1NC(=O)c1cnn3cccnc13)CN(C1CCN(CC3CCN(c4ccc5c(c4)C(=O)N(C4CCC(=O)NC4=O)C5=O)CC3)CC1)C2=O` (stereo not shown) [Example 46], in the test on IL6 [1], the Dmax was in the range of 70 to 80% and the IC50 was 0.01 to 0.05 µM. In the test on IL6 [2], the Dmax is not below 90% and the IC50 was 0.01 to 0.05 µM. Also, at IRAK-4, the DC50 was 0.001 to 0.005 µM, the Dmax is not below 90% and the “PBMC DC90” value was “A (A represents a DC90 value <10.0 nM)”.
Turning to `CC(C)Oc1cc2c(cc1NC(=O)c1cnn3cccnc13)CN(C1CCN(CC3CCN(c4ccc5c(c4)C(=O)N([C@@H]4CCC(=O)NC4=O)C5=O)CC3)CC1)C2=O` [Example 47], in the test with IL6 [1], the Dmax was 80 to 90% and the IC50 fell in the range of 0.01 to 0.05 µM. Moreover, in the test with IL6 [2], the Dmax lay in the range of 80 to 90% and the IC50 lay in the range of 0.01 to 0.05 µM. Besides, at IRAK-4, the DC50 was 0.001 to 0.005 µM, the Dmax is not below 90% and the “PBMC DC90” value is reported as “A (A represents a DC90 value <10.0 nM)”.
Take `CC(C)Oc1cc2c(cc1NC(=O)c1cnn3cccnc13)CN(C1CCN(CC3CCN(c4ccc5c(c4)C(=O)N([C@H]4CCC(=O)NC4=O)C5=O)CC3)CC1)C2=O` [Example 48]: in the test on IL6 [1], the Dmax was 70 to 80% and the IC50 was 0.01 to 0.05 µM. Besides, in the test with IL6 [2], the Dmax was not below 90% and the IC50 was in the range of 0.01 to 0.05 µM. For the same molecule, at IRAK-4, the DC50 was less than 0.001 µM, the Dmax was not below 90% and the “PBMC DC90” value is “A (A represents a DC90 value <10.0 nM)”.
Regarding `O=C1CCC(N2Cc3ccc(N4CCC(CN5CCC(N6Cc7cc(NC(=O)c8cnn9cccnc89)c(N8CCC(N9CCC9)CC8)cc7C6=O)CC5)CC4)cc3C2=O)C(=O)N1` (stereo not shown) [Example 49], in the test on IL6 [1], the Dmax was not below 90% and the half-maximal inhibitory concentration (IC50) is less than 0.01 µM. In the test on IL6 [2], the Dmax was not below 90% and the IC50 was less than 0.01 µM. For the same molecule, at IRAK-4, the DC50 was less than 0.001 µM, the Dmax was not below 90% and the “PBMC DC90” value is recorded as “A (A represents a DC90 value <10.0 nM)”.
Regarding `O=C1CCC(N2Cc3cc(N4CCC(CN5CCC(N6Cc7cc(NC(=O)c8cnn9cccnc89)c(N8CCN(CC(F)F)CC8)cc7C6=O)CC5)CC4)ccc3C2=O)C(=O)N1` (stereo not shown) [Example 50], in the test on IL6 [1], the Dmax is less than 70% and the IC50 was 0.01 to 0.05 µM. Besides, in the test on IL6 [2], the Dmax is not below 90% and the IC50 lay in the range of 0.01 to 0.05 µM. On IRAK-4, the 50% degradation concentration (DC50) is less than 0.001 µM, the Dmax was not below 90% and the “PBMC DC90” value is given as “A (A represents a DC90 value <10.0 nM)”.
For `O=C1CCC(N2Cc3c(ccc(N4CCC(CN5CCC(N6Cc7cc(NC(=O)c8cnn9cccnc89)c(N8CCN(CC(F)F)CC8)cc7C6=O)CC5)CC4)c3F)C2=O)C(=O)N1` (stereo not shown) [Example 51], in the test on IL6 [1], the Dmax was less than 70% and the IC50 fell in the range of 0.05 to 0.1 µM. Also, in the test on IL6 [2], the Dmax is not below 90% and the IC50 was in the range of 0.01 to 0.05 µM. In addition, on IRAK-4, the DC50 was less than 0.001 µM, the Dmax is not below 90% and the “PBMC DC90” value was “A (A represents a DC90 value <10.0 nM)”.
For `O=C1CCC(N2C(=O)c3ccc(N4CCC(CN5CCC(N6Cc7cc(NC(=O)c8cnn9cccnc89)c(N8CCN(CC(F)F)CC8)cc7C6=O)CC5)CC4)cc3C2=O)C(=O)N1` (stereo not shown) [Example 52], in the test on IL6 [1], the Dmax is 80 to 90% and the IC50 lay within 0.01 to 0.05 µM. In the test on IL6 [2], the Dmax was 80 to 90% and the IC50 was in the range of 0.01 to 0.05 µM. Besides, on IRAK-4, the DC50 lay within 0.001 to 0.005 µM, the Dmax is not below 90% and the “PBMC DC90” value was “A (A represents a DC90 value <10.0 nM)”.
`O=C1CCC(N2C(=O)c3ccc(N4CCC(CN5CCC(N6Cc7cc(NC(=O)c8cnn9cccnc89)c(N8CCN(C9CC(F)(F)C9)CC8)cc7C6=O)CC5)CC4)cc3C2=O)C(=O)N1` (stereo not shown) [Example 53]: in the test with IL6 [1], the Dmax is less than 70% and the IC50 fell in the range of 0.05 to 0.1 µM. For the same molecule, in the test with IL6 [2], the Dmax lay within 70 to 80% and the IC50 was 0.01 to 0.05 µM. On IRAK-4, the DC50 lay in the range of 0.001 to 0.005 µM; the Dmax is not below 90%; the “PBMC DC90” value is “B (B represents a DC90 value ≥10.0 nM and <25.0 nM)”.
On to `O=C1CCC(N2Cc3cc(N4CCC(CN5CCC(N6Cc7cc(NC(=O)c8cnn9cccnc89)c(N8CCN(C9CC(F)(F)C9)CC8)cc7C6=O)CC5)CC4)ccc3C2=O)C(=O)N1` (stereo not shown) [Example 54], for which, in the test with IL6 [1], the Dmax is less than 70% and the IC50 was less than 0.01 µM. For the same molecule, in the test on IL6 [2], the Dmax fell in the range of 80 to 90% and the IC50 was 0.01 to 0.05 µM. Further, on IRAK-4, the DC50 lay in the range of 0.001 to 0.005 µM, the Dmax is not below 90% and the “PBMC DC90” value is given as “A (A represents a DC90 value <10.0 nM)”.
Regarding `O=C1CCC(N2Cc3c(ccc(N4CCC(CN5CCC(N6Cc7cc(NC(=O)c8cnn9cccnc89)c(N8CCN(C9CC(F)(F)C9)CC8)cc7C6=O)CC5)CC4)c3F)C2=O)C(=O)N1` (stereo not shown) [Example 55], in the test with IL6 [1], the Dmax is less than 70% and the IC50 was less than 0.01 µM. Also, in the test on IL6 [2], the Dmax is not below 90% and the IC50 fell in the range of 0.01 to 0.05 µM. Further, on IRAK-4, the DC50 was less than 0.001 µM, the Dmax was not below 90% and the “PBMC DC90” value is given as “A (A represents a DC90 value <10.0 nM)”.
Consider `Cc1cnc2c(C(=O)Nc3cc4c(cc3OC(C)C)C(=O)N(C3CCN(CC5CCN(c6ccc7c(c6)C(=O)N(C6CCC(=O)NC6=O)C7=O)CC5)CC3)C4)cnn2c1` (stereo not shown) [Example 56], for which, in the test on IL6 [1], the Dmax fell in the range of 70 to 80% and the IC50 is less than 0.01 µM. For the same molecule, in the test on IL6 [2], the Dmax was not below 90% and the IC50 is 0.01 to 0.05 µM. In addition, at IRAK-4, the DC50 lay within 0.001 to 0.005 µM, the Dmax is not below 90% and the “PBMC DC90” value is reported as “A (A represents a DC90 value <10.0 nM)”.
Turning to `CC(C)Oc1cc2c(cc1NC(=O)c1cnn3cccnc13)CN(C1CCN(CC3CCN(c4ccc5c(c4)C(=O)N(C4CCC(=O)NC4=O)C5)CC3)CC1)C2=O` (stereo not shown) [Example 105], in the test on IL6 [1], the Dmax lay within 70 to 80% and the IC50 was not below 0.1 µM. Moreover, in the test on IL6 [2], the Dmax is 80 to 90% and the IC50 fell in the range of 0.05 to 0.1 µM. At IRAK-4, the DC50 was not below 0.01 µM and the “PBMC DC90” value was “D (D represents a DC90 value ≥50 nM)”.
Turning to `CC(C)Oc1cc2c(cc1NC(=O)c1cnn3cccnc13)CN(C1CCN(CC3(F)CN(c4ccc5c(c4)C(=O)N(C4CCC(=O)NC4=O)C5)C3)CC1)C2=O` (stereo not shown) [Example 106], in the test with IL6 [1], the Dmax was 80 to 90% and the IC50 is not below 0.1 µM. Further, in the test on IL6 [2], the Dmax was not below 90% and the IC50 lay in the range of 0.01 to 0.05 µM. Also, at IRAK-4, the DC50 was in the range of 0.001 to 0.005 µM, the Dmax was not below 90% and the “PBMC DC90” value is reported as “A (A represents a DC90 value <10.0 nM)”.
As to `CC(C)Oc1cc2c(cc1NC(=O)c1cnn3cccnc13)CN(C1CCN(CC3(F)CN(c4ccc5c(c4F)CN(C4CCC(=O)NC4=O)C5=O)C3)CC1)C2=O` (stereo not shown) [Example 107], in the test with IL6 [1], the Dmax was not below 90% and the 50% inhibitory concentration (IC50) lay in the range of 0.01 to 0.05 µM. In the test with IL6 [2], the Dmax is not below 90% and the IC50 was 0.05 to 0.1 µM. Also, on IRAK-4, the DC50 lay within 0.001 to 0.005 µM, the Dmax fell in the range of 70 to 80% and the “PBMC DC90” value was “A (A represents a DC90 value <10.0 nM)”.
In the case of `CC(C)Oc1cc2c(cc1NC(=O)c1cnn3cccnc13)CN(C1CCN(CC3(F)CN(c4cc(F)c5c(c4)C(=O)N(C4CCC(=O)NC4=O)C5)C3)CC1)C2=O` (stereo not shown) [Example 108], in the test with IL6 [1], the Dmax was in the range of 80 to 90% and the IC50 fell in the range of 0.01 to 0.05 µM. In the test with IL6 [2], the Dmax was not below 90% and the IC50 was 0.01 to 0.05 µM. On IRAK-4, the DC50 lay within 0.001 to 0.005 µM; the Dmax is not below 90%; the “PBMC DC90” value was “B (B represents a DC90 value ≥10.0 nM and <25.0 nM)”.

The term IC50 denotes the concentration that gives 50% inhibition. A word on the DC50: it is the concentration at which degradation of the target reaches its halfway point. Low readings indicate a more potent degrader, high ones a less potent degrader.
